Experiments:
[1] = tested on: Mycobacterium smegmatis ATCC 607; assay: Antimicrobial activity against Mycobacterium smegmatis ATCC 607 (agar plate-cylinder); format: cell-based; settings: standard bleomycin A2 (copper-free) assumed 1,000 mcg potency/mg
Procedure: (§1) 2. ANT[…] MYC[…] ATCC 607 AND BACILLUS SUBTILIS
(§2) The antimicrobial activity was tested against the captioned test organisms by the method of agar plate-cylinder. The activity was recorded on the assumption that the activity of standard sample of bleomycin A2 (copper-free form) is 1,000 mcg poteney/mg.

Bacillus subtilis = assay: Antimicrobial activity against Bacillus subtilis (agar plate-cylinder); format: cell-based; settings: standard bleomycin A2 (copper-free) assumed 1,000 mcg potency/mg
Procedure: as §1, §2

Structure (SMILES) | Antimicrobial potency of Cu-free compound against Mycobacterium smegmatis ATCC 607 [1] [mcg potency/mg] | Antimicrobial potency of Cu-free compound against Bacillus subtilis (Bacillus subtilis) [mcg potency/mg]
Cc1c(N)nc(C(CC(N)=O)NCC(N)C(=O)NCc2nccs2)nc1C(=O)NC(C(=O)NC(C)C(O)C(C)C(=O)NC(C(=O)NCCc1nc(-c2nc(C(=O)NCCCCNC(=N)N)cs2)cs1)C(C)O)C(OC1OC(CO)C(O)C(O)C1OC1OC(CO)C(O)C(OC(N)=O)C1O)c1cnc[nH]1 (stereo not drawn) [Compound 20, 4-Guanidinobutylamino-(amido)N--[2-thiazolylmethyl]-BLM] | 4870 | 900
Cc1c(N)nc(C(CC(N)=O)NCC(N)C(=O)NC(Cc2ccccc2)c2ccccc2)nc1C(=O)NC(C(=O)NC(C)C(O)C(C)C(=O)NC(C(=O)NCCc1nc(-c2nc(C(=O)NCCCCNC(=N)N)cs2)cs1)C(C)O)C(OC1OC(CO)C(O)C(O)C1OC1OC(CO)C(O)C(OC(N)=O)C1O)c1cnc[nH]1 (stereo not drawn) [Compound 16, 4-Guanidinobutylamino-(amido)N--[1',2'-diphenylethyl]-BLM] | 24480 | 520
Cc1c(N)nc(C(CC(N)=O)NCC(N)C(=O)NCc2ccccc2)nc1C(=O)NC(C(=O)NC(C)C(O)C(C)C(=O)NC(C(=O)NCCc1nc(-c2nc(C(=O)NCCc3c[nH]cn3)cs2)cs1)C(C)O)C(OC1OC(CO)C(O)C(O)C1OC1OC(CO)C(O)C(OC(N)=O)C1O)c1cnc[nH]1 (stereo not drawn) [Compound 4, 2-(4'-Imidazolyl)ethylamino-(amido)N--[benzyl]-BLM] | 6595 | 579
Cc1c(N)nc(C(CC(N)=O)NCC(N)C(=O)NC2CCN(Cc3ccccc3)CC2)nc1C(=O)NC(C(=O)NC(C)C(O)C(C)C(=O)NC(C(=O)NCCc1nc(-c2nc(C(=O)NCCCNC(C)c3ccccc3)cs2)cs1)C(C)O)C(OC1OC(CO)C(O)C(O)C1OC1OC(CO)C(O)C(OC(N)=O)C1O)c1cnc[nH]1 [Compound 35, 3-((S)-1'-phenylethylamino)propylamino-(amido)N--[N--benzyl-piperazin-4-yl]-BLM] | 18537 | 2159
COc1ccc2[nH]cc(CCNC(=O)C(N)CNC(CC(N)=O)c3nc(N)c(C)c(C(=O)NC(C(=O)NC(C)C(O)C(C)C(=O)NC(C(=O)NCCc4nc(-c5nc(C(=O)NCCCNC(C)c6ccccc6)cs5)cs4)C(C)O)C(OC4OC(CO)C(O)C(O)C4OC4OC(CO)C(O)C(OC(N)=O)C4O)c4cnc[nH]4)n3)c2c1 [Compound 28, 3-((S)-1'-phenylethylamino)propylamino-(amido)N--[5-methyoxyindol-3-ylethyl]-BLM] | 18650 | 586
Cc1c(N)nc(C(CC(N)=O)NCC(N)C(=O)NCCN)nc1C(=O)NC(C(=O)NC(C)C(O)C(C)C(=O)NC(C(=O)NCCc1nc(-c2nc(C(=O)NCCc3c[nH]cn3)cs2)cs1)C(C)O)C(OC1OC(CO)C(O)C(O)C1OC1OC(CO)C(O)C(OC(N)=O)C1O)c1cnc[nH]1 (stereo not drawn) [Compound 6, 2-(4'-Imidazolyl)ethylamino-(amido)N--[2-aminoethyl]-BLM] | 2396 | 4453
Cc1c(N)nc(C(CC(N)=O)NCC(N)C(=O)NC(c2ccccc2)c2ccccc2)nc1C(=O)NC(C(=O)NC(C)C(O)C(C)C(=O)NC(C(=O)NCCc1nc(-c2nc(C(=O)NCCCNC(C)c3ccccc3)cs2)cs1)C(C)O)C(OC1OC(CO)C(O)C(O)C1OC1OC(CO)C(O)C(OC(N)=O)C1O)c1cnc[nH]1 [Compound 31, 3-((S)-1'-phenylethylamino)propylamino-(amido)N--[diphenylmethyl]-BLM] | 54645 | 430
Cc1c(N)nc(C(CC(N)=O)NCC(N)C(=O)NCCCCCCCCCCCCN)nc1C(=O)NC(C(=O)NC(C)C(O)C(C)C(=O)NC(C(=O)NCCc1nc(-c2nc(C(=O)NCCCNC(C)c3ccccc3)cs2)cs1)C(C)O)C(OC1OC(CO)C(O)C(O)C1OC1OC(CO)C(O)C(OC(N)=O)C1O)c1cnc[nH]1 [Compound 29, 3-((S)-1'-phenylethylamino)propylamino-(amido)N--[do-decanyl]-BLM] | 14200 | 5400
Cc1c(N)nc(C(CC(N)=O)NCC(N)C(=O)NCc2ccco2)nc1C(=O)NC(C(=O)NC(C)C(O)C(C)C(=O)NC(C(=O)NCCc1nc(-c2nc(C(=O)NCCCCNC(=N)N)cs2)cs1)C(C)O)C(OC1OC(CO)C(O)C(O)C1OC1OC(CO)C(O)C(OC(N)=O)C1O)c1cnc[nH]1 (stereo not drawn) [Compound 18, 4-Guanidinobutylamino-(amido)N--[2-furylmethyl]-BLM] | 19150 | 1285
Cc1c(N)nc(C(CC(N)=O)NCC(N)C(=O)Nc2ccc3ccccc3c2)nc1C(=O)NC(C(=O)NC(C)C(O)C(C)C(=O)NC(C(=O)NCCc1nc(-c2nc(C(=O)NCCCCNC(=N)N)cs2)cs1)C(C)O)C(OC1OC(CO)C(O)C(O)C1OC1OC(CO)C(O)C(OC(N)=O)C1O)c1cnc[nH]1 (stereo not drawn) [Compound 17, 4-Guanidinobutylamino-(amido)N--[β-naphthyl]-BLM] | 33650 | 1295
Cc1c(N)nc(C(CC(N)=O)NCC(N)C(=O)NCc2ccccc2)nc1C(=O)NC(C(=O)NC(C)C(O)C(C)C(=O)NC(C(=O)NCCc1nc(-c2nc(C(=O)NCCCCNC(=N)N)cs2)cs1)C(C)O)C(OC1OC(CO)C(O)C(O)C1OC1OC(CO)C(O)C(OC(N)=O)C1O)c1cnc[nH]1 (stereo not drawn) [Compound 14, 4-Guanidinobutylamino-(amido)N--[benzyl]-BLM] | 28140 | 1650
Cc1c(N)nc(C(CC(N)=O)NCC(N)C(=O)NCC(F)(F)F)nc1C(=O)NC(C(=O)NC(C)C(O)C(C)C(=O)NC(C(=O)NCCc1nc(-c2nc(C(=O)NCCCCNC(=N)N)cs2)cs1)C(C)O)C(OC1OC(CO)C(O)C(O)C1OC1OC(CO)C(O)C(OC(N)=O)C1O)c1cnc[nH]1 (stereo not drawn) [Compound 9, 4-Guanidinobutylamino-(amido)N--[2',2',2'-trifluoroethyl]-BLM] | 3990 | 730
Cc1c(N)nc(C(CC(N)=O)NCC(N)C(=O)NCc2ccccc2)nc1C(=O)NC(C(=O)NC(C)C(O)C(C)C(=O)NC(C(=O)NCCc1nc(-c2nc(C(=O)NCCCNC(C)c3ccccc3)cs2)cs1)C(C)O)C(OC1OC(CO)C(O)C(O)C1OC1OC(CO)C(O)C(OC(N)=O)C1O)c1cnc[nH]1 [Compound 23, 3-((S)-1'-phenylethyl)aminopropylamino-(amido)N--[benzyl]-BLM] | 38348 | 1380
CCCCCCCCNC(=O)C(N)CNC(CC(N)=O)c1nc(N)c(C)c(C(=O)NC(C(=O)NC(C)C(O)C(C)C(=O)NC(C(=O)NCCc2nc(-c3nc(C(=O)NCCCN(C)CCCNCCc4ccc(Cl)cc4)cs3)cs2)C(C)O)C(OC2OC(CO)C(O)C(O)C2OC2OC(CO)C(O)C(OC(N)=O)C2O)c2cnc[nH]2)n1 (stereo not drawn) [Compound 44] | 38750 | 1898
CCCCN(CCCC)CCCNC(=O)C(N)CNC(CC(N)=O)c1nc(N)c(C)c(C(=O)NC(C(=O)NC(C)C(O)C(C)C(=O)NC(C(=O)NCCc2nc(-c3nc(C(=O)NCCCN(C)CCCNCc4ccc(C#N)cc4)cs3)cs2)C(C)O)C(OC2OC(CO)C(O)C(O)C2OC2OC(CO)C(O)C(OC(N)=O)C2O)c2cnc[nH]2)n1 (stereo not drawn) [Compound 61, 3-{N--methyl-N--[3-(p-cyanobenzylamino)propyl]amino}-propylamino-(amido)N--[3-(di-n-butylamino)propyl]-BLM] | 14730 | 4755
Cc1c(N)nc(C(CC(N)=O)NCC(N)C(=O)NC(Cc2ccccc2)c2ccccc2)nc1C(=O)NC(C(=O)NC(C)C(O)C(C)C(=O)NC(C(=O)NCCc1nc(-c2nc(C(=O)NCCCN(C)CCCNCc3ccc(Cl)cc3)cs2)cs1)C(C)O)C(OC1OC(CO)C(O)C(O)C1OC1OC(CO)C(O)C(OC(N)=O)C1O)c1cnc[nH]1 (stereo not drawn) [Compound 41, 3-{N--methyl-N--[3-(p-chlorobenzyl)aminopropyl]amino}propyl-amino-(amido)N--[1,2-diphenylethyl]-BLM] | 23342 | 521
Cc1c(N)nc(C(CC(N)=O)NCC(N)C(=O)NC(Cc2ccccc2)c2ccccc2)nc1C(=O)NC(C(=O)NC(C)C(O)C(C)C(=O)NC(C(=O)NCCc1nc(-c2nc(C(=O)NCCCNC(C)c3ccccc3)cs2)cs1)C(C)O)C(OC1OC(CO)C(O)C(O)C1OC1OC(CO)C(O)C(OC(N)=O)C1O)c1cnc[nH]1 [Compound 30, 3-((S)-1'-phenylethylamino)propylamino-(amido)N--[1',2'-diphenyl-ethyl]-BLM] | 33802 | 190
Cc1c(N)nc(C(CC(N)=O)NCC(N)C(=O)NCc2cccnc2)nc1C(=O)NC(C(=O)NC(C)C(O)C(C)C(=O)NC(C(=O)NCCc1nc(-c2nc(C(=O)NCCCCNC(=N)N)cs2)cs1)C(C)O)C(OC1OC(CO)C(O)C(O)C1OC1OC(CO)C(O)C(OC(N)=O)C1O)c1cnc[nH]1 (stereo not drawn) [Compound 19, 4-Guanidinobutylamino-(amido)N--[3-pyridylmethyl]-BLM] | 5160 | 1010

From US4472304A, “(Amido)N-substituted bleomycins, salts thereof and process for preparation thereof” (Nippon Kayaku Kabushiki Kaisha, priority 1981, dated 1984)
